Test results from patent publication US20020009436A1, “Methods and compositions for inhibiting adhesion by microorganisms” (priority 1999, published 2002).
Read-outs that look alike come from different tables or passages of the source. Blank lines part the entries; values can stand above or below the compound they belong to.

What was measured:
[1] = system: B. fragilis (adhesin) / A. naeslundii ATCC 12104 (receptor); assay: Coaggregation B. fragilis / A. naeslundii ATCC 12104; settings: B. fragilis (adhesin) enzyme treated; polyphenol oxidase 90 U/ml
[2] = system: E. coli possessing type 1 fimbriae / Saccharomyces cerevisiae cells; assay: Adhesion of E. coli to yeast; assay type: cell-based
Protocol: Materials and methods were generally as described in the previous Examples, but slightly modified for observing adhesion by E. coli to yeast. […] Cells were washed 2× in PBS and suspended in PB. Cells were treated with polyphenol oxidase at 37° C., washed 2×, and resuspended in PBS. E. coli (5×10^8 cells) were incubated with 1×10^5 Saccharomyces cerevisiae cells in a 3 ml volume and rotated with an end-over-end motion at 37° C. for 30 min. Suspensions were harvested, washed 2× in PBS and resuspended in 300 μl PBS. Methyl-α-D-mannose was added to some reaction mixtures. Ten μl samples were withdrawn and placed on a microscope slide, heat-fixed, stained with crystal violet for 2 min, rinsed and dried. Preparations were viewed at 1000× with phase-contrast microscopy. Numbers of bacteria bound to yeast cells were tabulated.

polyphenol oxidase [3] = assay: Effect of inhibiting polyphenol oxidase activity on dextran aggregation; assay type: cell-based; settings: for effect on polyphenol oxidase induced inactivation: protease inhibitors added before polyphenol oxidase
Protocol: (§1) The standard rate assay published by Drake et al. (Drake D. et al. Infect. Immun. 56:1864-1872 (1988)) was used to study the interaction of S. sobrinus 6715 glucan-binding lectin with high molecular weight dextran. Briefly, bacterial suspensions were adjusted to an optical density of 0.75-0.90 in PBS, and 3-ml suspensions were added to test tubes (13×100 mm). Dextran T-2000 was added at a final concentration of 10 1μg/ml and the suspensions were vortexed for 5 sec. Control tubes received PBS. The decrease in optical density was continuously monitored spectrophotometrically for 5 min. Rate constants were obtained from the slopes of first-order plots of ln A/A0 (A=observed optical density; A0 optical density at time zero) versus time in minutes. Each sample was assayed at least three times.
Cells were suspended in phosphate buffer (20 mM, pH 6.5) and treated with either polyphenol oxidase (Worthington Biochemical Corporation, Freehold N.J., Lot 37A889) (1260 U/ml) for 1 h at 37° C. with rotary shaking (150 rev/min), then washed twice with cold PBS. Inhibitors (all from Sigma), when present, were added before polyphenol oxidase addition at the following concentrations: phenylmethylsulfonyl fluoride (PMSF) 500 μM; leupeptin, 500 μg/ml; ethylenediaminetetracetic acid (EDTA), 5 mM, potassium chloride 200 mM; polyvinylpyrrolidone, 500 μg/m; ascorbic acid, 3 mM; lactic acid, 10%.

[4] = system: S. sobrinus 6715 glucan-binding lectin; assay: Aggregation of S. sobrinus with high molecular weight dextran T-2000 (standard rate assay); assay type: cell-based, Streptococcus sobrinus; settings: dextran T-10 1 mg/ml or glycogen 2.5 mg/ml before polyphenol oxidase treatment
Protocol: S. sobrinus 6715 was maintained on tryptic soy agar (Difco, Detroit, Mich.) and grown for experiments in Terleckyj's defined medium or tryptic soy broth (TSB) (Difco) pretreated with dextranase (1 mg of enzyme per g dry medium) and invertase (5 mg per g dry medium) for 2 h each in 5% CO2 at 37° C. for 16-18h. Cultures were centrifuged at 12,000×g for 10 min and washed twice with cold phosphate buffered saline (PBS, 20 mM, pH 7.2). Cells were suspended in PBS to an optical density of 0.8 (A540). Cultures grown in TSB were harvested and suspended in PBS and subsequently treated with dextranase for 1 h, followed by washing two times in PBS.
as §1, with “Each sample was assayed at least three times.” left out

[5] = system: type 1-fimbriated and P-fimbriated E. coli; assay: Growth inhibition of E. coli; assay type: cell-based; settings: ampicillin 1 mg/ml to 0.015 mg/ml; polyphenol oxidase 1128 to 17.5 units/ml; asparaginase 20 to 0.31 units/ml; data not shown
Protocol: Similar and/or art recognized methods were used to monitor the effects of asparaginase on growth of other microbes including two strains of E. coli, S. pyogenes, Klebsiella pneumoniae, Bacillus cereus, and Proteus vulgaris. Both type 1-fimbriated and P-fimbriated E. coli were incubated with polyphenol oxidase, asparaginase, and ampicillin to test the ability of these agents to inhibit the growth of the bacteria.

polyphenol oxidase [6] = assay: Effect of inhibiting polyphenol oxidase activity on dextran aggregation; assay type: cell-based; settings: inhibitor concentration 2.5%
[7] = known polyphenol oxidase inhibitors

Compound: Per: horseradish peroxidase
Inhibition % of coaggregation [1]: 11%

Compound: COC1OC(CO)C(O)C(O)C1O [Methyl-α-mannose, Methyl-α-D-mannose]
effect of preincubating E. coli before polyphenol oxidase treatment [2]: eliminated polyphenol oxidase mediated reduction of adhesion | attachment of control cells to Saccharomyces ([2]; added to control cells): prevented their attachment

effect on the effects of polyphenol oxidase on glucan aggregation (polyphenol oxidase [3]; [7]): reduced the effects
Compound: CC(O)C(=O)O (stereo not drawn) [lactic acid]
Percent Inhibition of Polyphenol Oxidase Induced Reduction in Aggregation (polyphenol oxidase [3]; inhibitor concentration 10%): 92 (+/−8) Percent

effect on the effects of polyphenol oxidase on glucan aggregation (polyphenol oxidase [3]; [7]): reduced the effects
Compound: O=C1O[C@H]([C@@H](O)CO)C(O)=C1O [ascorbic acid]
Percent Inhibition of Polyphenol Oxidase Induced Reduction in Aggregation (polyphenol oxidase [3]; inhibitor concentration 3 mM): 100%

Compound: glycogen [reference compound]
effect of pre-incubating the bacteria with carbohydrate on the polyphenol oxidase inhibition of aggregation [4]: no effect

Compound: CC(=O)N[C@@H](CC(C)C)C(=O)N[C@@H](CC(C)C)C(=O)N[C@H](C=O)CCCNC(=N)N [leupeptin]
Percent Inhibition of Polyphenol Oxidase Induced Reduction in Aggregation (polyphenol oxidase [3]; inhibitor concentration 500 μg/ml): 0% | effect on polyphenol oxidase induced inactivation (polyphenol oxidase [3]): completely inhibited

Compound: CC1(C)S[C@@H]2[C@H](NC(=O)[C@H](N)c3ccccc3)C(=O)N2[C@H]1C(=O)O [ampicillin, reference compound]
inhibition of growth of P-fimbriated E. coli [5]: inhibited the growth | inhibition of growth of type 1-fimbriated E. coli [5]: inhibited the growth

Compound: O=S(=O)(F)Cc1ccccc1 [PMSF, phenylmethylsulfonyl fluoride]
Percent Inhibition of Polyphenol Oxidase Induced Reduction in Aggregation (polyphenol oxidase [3]; inhibitor concentration 500 μM): 0% | effect on polyphenol oxidase induced inactivation (polyphenol oxidase [3]): completely inhibited

Compound: [Cl-].[K+] [KCl, potassium chloride]
effect on the effects of polyphenol oxidase on glucan aggregation (polyphenol oxidase [3]; [7]): reduced the effects | Percent Inhibition of Polyphenol Oxidase Induced Reduction in Aggregation (polyphenol oxidase [6]): 100%

Compound: O=C(O)CN(CCN(CC(=O)O)CC(=O)O)CC(=O)O [EDTA, ethylenediaminetetracetic acid]
Percent Inhibition of Polyphenol Oxidase Induced Reduction in Aggregation (polyphenol oxidase [3]): 100% | effect on the effects of polyphenol oxidase on glucan aggregation (polyphenol oxidase [3]): reduced the effects
